# Assay results published in US20070161551A1, “Methods and compositions for the treatment of lipodystrophy” (priority 2004, published 2007).
# Read-outs that look alike come from different tables or passages of the source.
# How the values were obtained:
# normal mice = details: cited from earlier work
# ob/ob mice = details: daily injections, cited from earlier work
# [1] = system: HIV/AIDS wasting patients; details: cited from earlier work
# patients with HIV/AIDS = details: cited from earlier work; for insulin-like growth factor-I (IGF-I) levels: during treatment
# [2] = system: patients with overt AIDS wasting; details: cited from earlier work
# patients with HADDS = details: cited from earlier work
# [3] = system: AIDS patients that manifest symptoms of HADDS; experiment: Combined rhGH (SEROSTIM) plus statin therapy in AIDS patients with HADDS symptoms; format: in vivo, human; details: after 3 months; combined therapy versus rhGH alone or statin alone
# Procedure: AIDS patients with a history of long-term use (an average of 12 months) of HAART that manifest symptoms of HADDS, including buffalo humps, central adiposity and peripheral muscle wasting associated with fatigue, along with elevated levels of plasma triglycerides and/or cholesterol are selected for the study. Therapy with rhGH (SEROSTIM®) is initiated in all patients at a dose of e.g., 4 mg/day subcutaneously (other concentrations, e.g., 6 mg/day could be used). At the same time, the patients are treated with a statin in a dosage amount of 40 mg/day, which is administered orally. This dosage amount is based on the average dose of statin drugs commonly administered for antilipemic purposes. The patients are maintained on this […] for three months and monitored every two weeks for improvements of fat maldistribution. In parallel therapies, patients are treated with just rhGH and just statin.
# [4] = at 12 weeks, not deemed clinically significant (Engleson et al. 1999)
# [5] = rhGH 4 to 6 mg/day, by four months (Torres 1999)
substance,measurement,setting,value
leptin: protein hormone of approximately 16 kDa encoded by the obese (ob) gene; recombinant mouse or human leptin,adipose tissue,"normal mice; mouse, in vivo",profound depletion of adipose tissue
same,body weight,"normal mice; mouse, in vivo",lose weight
same,lean mass,"normal mice; mouse, in vivo",increases in lean mass
same,lipolysis in adipose tissue,"normal mice; no apparent effect on lean tissue, species not stated",promotes lipolysis
same,food intake,ob/ob mice; within a few days,dramatic reduction
same,reduction in body weight,ob/ob mice; within a month,~50%
"hGH: Human growth hormone, single polypeptide chain of 191 amino acids having two disulfide bonds",safety of supraphysiologic doses,"[1]; in vivo, sc",safely administered
same,weight loss preceding the study,"patients with HIV/AIDS; 5.0 mg qod, four patients who completed the study",reversed
"rhGH: Recombinant human growth hormone, rhGH, produced by Serono S. A. as SEROSTIM®",lean body mass and weight,"[2]; 0.1 mg/kg/day, 12 weeks, compared to placebo",significant increases
same,tolerability of relatively high doses,"[2]; 6 mg/day s.c., many patients with overt AIDS wasting",without developing adverse effects that require dose reduction or cessation of therapy
same,effectiveness of a three-month course of therapy,"[1]; over 10,000 HIV/AIDS wasting patients since 1996",effective in the majority of patients
same,visceral adiposity,"patients with HADDS; Engleson et al. 1999, Mauss et al. 1998",reduce
same,solitary lipomas,patients with HADDS; Milano et al. 1999,reduce
same,buffalo hump,"patients with HADDS; Torres 1998, 1999",reduce
same,abdominal girth,patients with HADDS; Wanke et al. 1999,reduce
same,HDL cholesterol and glucose,patients with HADDS; [4],increased
same,total cholesterol and fasting triglycerides,patients with HADDS; [4],dropped significantly
same,collective side effects of rhGH administration,"patients with HADDS; human, in vivo","swelling of the fingers or paresthesia due to tissue turgor, a few transient elevations of fasting glucose and triglycerides"
same,lean body mass and body cell mass,patients with HADDS; quantified by bioelectrical impedance analysis,increased
same,change in peripheral lipodystrophy,patients with HADDS; [5],no change
same,increase in fat free mass,patients with HADDS; [5],5 to 10%
same,size and firmness of buffalo humps,patients with HADDS; [5],significantly reduces
same,truncal adiposity,patients with HADDS; [5],reduces
same,"changes in body weight, total body fat, or blood lipids","patients with HADDS; rhGH 4 to 6 mg/day, during the treatment period (Torres 1999)",no significant or consistent changes
same,"abnormally accumulated fat, compared to baseline","patients with HADDS; s.c., 3 to 6 mg per day for 12 to 24 weeks",significantly reduces
same,insulin-like growth factor-I (IGF-I) levels,patients with HIV/AIDS; 2.5 mg qod,no significant change
same,insulin-like growth factor-I (IGF-I) levels,patients with HIV/AIDS; 5.0 mg qod,increased significantly
same,improvement in fat maldistribution,[3],do not experience as dramatic an improvement
